Columns and labels:
PARP9 = PARP9 (Homo sapiens, UniProt Q8IXQ6); assay: Selectivity profile (other isoforms of PARP and NRP family); assay type: biochemical
BTK = BTK (Homo sapiens, UniProt Q06187); assay: Selectivity profile (123 kinase panel); assay type: biochemical
EPHA3 = EPHA3 (Homo sapiens, UniProt P29320); assay: Selectivity profile (123 kinase panel); assay type: biochemical
PARP1 = molecular target: T1, PARP1 (Homo sapiens, UniProt P09874); assay: Microscale thermophoresis (MST) assay; assay type: binding; conditions: labeled protein 50 nM, read-out: PARP1 (K d)
T1 construct: purchased Abcam
T1 sequence (P09874 whole entry): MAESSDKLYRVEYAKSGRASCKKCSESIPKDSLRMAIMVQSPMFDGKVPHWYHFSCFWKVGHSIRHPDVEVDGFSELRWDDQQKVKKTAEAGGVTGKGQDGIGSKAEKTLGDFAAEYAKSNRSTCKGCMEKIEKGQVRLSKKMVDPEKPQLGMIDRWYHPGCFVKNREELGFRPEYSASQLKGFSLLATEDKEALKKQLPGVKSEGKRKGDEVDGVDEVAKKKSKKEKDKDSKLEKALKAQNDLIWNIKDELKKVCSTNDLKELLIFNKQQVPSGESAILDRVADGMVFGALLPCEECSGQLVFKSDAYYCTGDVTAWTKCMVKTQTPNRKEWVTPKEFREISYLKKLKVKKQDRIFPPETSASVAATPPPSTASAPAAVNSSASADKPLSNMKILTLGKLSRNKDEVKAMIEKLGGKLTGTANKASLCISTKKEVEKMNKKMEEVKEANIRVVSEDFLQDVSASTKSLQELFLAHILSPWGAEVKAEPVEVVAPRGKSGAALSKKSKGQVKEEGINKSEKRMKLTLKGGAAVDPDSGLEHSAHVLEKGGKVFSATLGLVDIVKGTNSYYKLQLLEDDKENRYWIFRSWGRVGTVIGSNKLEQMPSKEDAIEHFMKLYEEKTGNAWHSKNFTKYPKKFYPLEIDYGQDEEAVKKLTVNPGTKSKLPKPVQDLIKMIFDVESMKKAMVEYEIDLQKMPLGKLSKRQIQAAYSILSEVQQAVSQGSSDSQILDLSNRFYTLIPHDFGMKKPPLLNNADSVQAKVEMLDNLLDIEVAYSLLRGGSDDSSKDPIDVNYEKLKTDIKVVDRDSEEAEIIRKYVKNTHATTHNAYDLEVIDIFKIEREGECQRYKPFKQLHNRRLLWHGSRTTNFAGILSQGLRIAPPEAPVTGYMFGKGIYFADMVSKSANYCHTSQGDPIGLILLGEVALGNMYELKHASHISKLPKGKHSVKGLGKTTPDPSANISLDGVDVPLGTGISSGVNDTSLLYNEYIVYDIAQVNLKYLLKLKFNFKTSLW
Description: (§1) All samples were diluted in 1 × PBST. […] Affinity Analysis software.

NRP1 = molecular target: T2, NRP1 (Homo sapiens, UniProt O14786); assay: Microscale thermophoresis (MST) assay; assay type: binding; conditions: labeled protein 50 nM, read-out: NRP1 (K d)
T2 construct: purchased Abcam
T2 sequence (O14786 22-644 isoform O14786-2 limits assumed): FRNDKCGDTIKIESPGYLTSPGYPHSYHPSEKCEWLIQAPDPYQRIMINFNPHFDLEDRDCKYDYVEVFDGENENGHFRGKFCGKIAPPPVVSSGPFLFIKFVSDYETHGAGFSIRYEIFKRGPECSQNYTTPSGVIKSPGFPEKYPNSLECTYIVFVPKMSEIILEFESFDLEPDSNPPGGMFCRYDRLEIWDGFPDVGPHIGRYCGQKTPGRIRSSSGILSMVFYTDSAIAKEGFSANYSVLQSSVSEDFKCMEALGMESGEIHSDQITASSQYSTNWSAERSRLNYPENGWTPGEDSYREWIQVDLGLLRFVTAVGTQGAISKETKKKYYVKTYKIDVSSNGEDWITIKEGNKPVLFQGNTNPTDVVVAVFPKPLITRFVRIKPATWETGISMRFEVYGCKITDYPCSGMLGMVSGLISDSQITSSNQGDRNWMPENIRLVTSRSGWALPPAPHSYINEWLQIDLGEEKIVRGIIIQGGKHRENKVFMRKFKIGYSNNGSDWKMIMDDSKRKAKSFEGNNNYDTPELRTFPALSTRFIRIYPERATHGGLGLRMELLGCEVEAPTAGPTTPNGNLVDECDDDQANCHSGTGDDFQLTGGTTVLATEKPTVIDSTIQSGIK
Description: as §1

FGR = FGR (Homo sapiens, UniProt P09769); assay: Selectivity profile (123 kinase panel); assay type: biochemical
Chain of FGR (P09769 whole entry, species assumed, canonical isoform): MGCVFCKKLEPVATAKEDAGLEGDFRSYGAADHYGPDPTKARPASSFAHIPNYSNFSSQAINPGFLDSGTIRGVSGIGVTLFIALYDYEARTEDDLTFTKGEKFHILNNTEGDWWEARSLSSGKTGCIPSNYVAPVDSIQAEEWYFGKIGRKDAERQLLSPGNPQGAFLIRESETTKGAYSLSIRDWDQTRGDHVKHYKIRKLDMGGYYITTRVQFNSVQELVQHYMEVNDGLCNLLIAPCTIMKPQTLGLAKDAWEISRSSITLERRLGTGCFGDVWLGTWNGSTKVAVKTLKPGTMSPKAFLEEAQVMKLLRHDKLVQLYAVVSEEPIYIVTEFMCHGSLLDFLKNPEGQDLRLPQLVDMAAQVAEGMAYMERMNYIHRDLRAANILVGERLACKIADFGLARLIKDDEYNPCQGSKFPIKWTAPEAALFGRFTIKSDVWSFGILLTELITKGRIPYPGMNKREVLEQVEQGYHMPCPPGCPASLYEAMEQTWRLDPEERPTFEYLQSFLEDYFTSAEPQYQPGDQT

PARP12 = PARP12 (Homo sapiens, UniProt Q9H0J9); assay: Selectivity profile (other isoforms of PARP and NRP family); assay type: biochemical
Chain of PARP12 (Q9H0J9 whole entry, canonical isoform): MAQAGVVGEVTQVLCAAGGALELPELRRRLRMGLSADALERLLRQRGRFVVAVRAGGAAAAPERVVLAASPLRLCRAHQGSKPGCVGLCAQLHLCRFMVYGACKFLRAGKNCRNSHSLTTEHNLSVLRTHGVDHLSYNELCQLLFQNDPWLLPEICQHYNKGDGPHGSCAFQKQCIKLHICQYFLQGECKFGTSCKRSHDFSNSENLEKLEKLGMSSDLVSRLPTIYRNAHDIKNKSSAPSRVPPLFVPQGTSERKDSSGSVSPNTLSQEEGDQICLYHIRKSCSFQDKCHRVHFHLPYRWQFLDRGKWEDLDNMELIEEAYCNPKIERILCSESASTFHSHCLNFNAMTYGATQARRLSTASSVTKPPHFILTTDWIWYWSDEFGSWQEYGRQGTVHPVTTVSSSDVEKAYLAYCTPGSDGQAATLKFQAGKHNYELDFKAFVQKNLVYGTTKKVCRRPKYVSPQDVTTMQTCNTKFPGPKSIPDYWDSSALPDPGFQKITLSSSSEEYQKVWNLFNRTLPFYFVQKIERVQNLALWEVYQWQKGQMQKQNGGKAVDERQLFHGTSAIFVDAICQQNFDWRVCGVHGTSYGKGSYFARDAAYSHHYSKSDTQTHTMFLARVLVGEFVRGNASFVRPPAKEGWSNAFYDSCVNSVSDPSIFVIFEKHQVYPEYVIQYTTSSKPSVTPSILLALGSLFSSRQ

BRSK1 = BRSK1 (Homo sapiens, UniProt Q8TDC3); assay: Selectivity profile (123 kinase panel); assay type: biochemical
JNK1 = JNK1 (Homo sapiens, UniProt P45983); assay: Selectivity profile (123 kinase panel); assay type: biochemical
NEK2 = NEK2 (Homo sapiens, UniProt P51955); assay: Selectivity profile (123 kinase panel); assay type: biochemical
DDR1 = DDR1 (Homo sapiens, UniProt Q08345); assay: Selectivity profile (123 kinase panel); assay type: biochemical
JNK2 = JNK2 (Homo sapiens, UniProt P45984); assay: Selectivity profile (123 kinase panel); assay type: biochemical
Chain of JNK2 (P45984 whole entry): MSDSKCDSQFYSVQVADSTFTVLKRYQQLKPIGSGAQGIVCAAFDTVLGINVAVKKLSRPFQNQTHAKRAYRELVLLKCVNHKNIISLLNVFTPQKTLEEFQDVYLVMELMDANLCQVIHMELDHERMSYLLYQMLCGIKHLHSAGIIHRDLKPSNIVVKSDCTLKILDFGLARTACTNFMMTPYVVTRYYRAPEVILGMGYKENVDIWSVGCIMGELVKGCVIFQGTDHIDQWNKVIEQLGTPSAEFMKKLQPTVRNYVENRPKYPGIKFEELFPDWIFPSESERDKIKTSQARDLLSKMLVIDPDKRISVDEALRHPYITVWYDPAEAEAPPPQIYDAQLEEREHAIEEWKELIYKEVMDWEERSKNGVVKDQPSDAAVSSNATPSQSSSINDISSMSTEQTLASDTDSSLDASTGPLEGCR

NuaK1 = NuaK1 (Homo sapiens, UniProt O60285); assay: Selectivity profile (123 kinase panel); assay type: biochemical
CRAF = CRAF (Homo sapiens, UniProt P04049, Y340D/Y341D); assay: Selectivity profile (123 kinase panel); assay type: biochemical
CK1δ = CK1δ (Homo sapiens, UniProt P48730); assay: Selectivity profile (123 kinase panel); assay type: biochemical
ACK = ACK (Homo sapiens, UniProt Q07912); assay: Selectivity profile (123 kinase panel); assay type: biochemical
Chain of ACK (Q07912 whole entry): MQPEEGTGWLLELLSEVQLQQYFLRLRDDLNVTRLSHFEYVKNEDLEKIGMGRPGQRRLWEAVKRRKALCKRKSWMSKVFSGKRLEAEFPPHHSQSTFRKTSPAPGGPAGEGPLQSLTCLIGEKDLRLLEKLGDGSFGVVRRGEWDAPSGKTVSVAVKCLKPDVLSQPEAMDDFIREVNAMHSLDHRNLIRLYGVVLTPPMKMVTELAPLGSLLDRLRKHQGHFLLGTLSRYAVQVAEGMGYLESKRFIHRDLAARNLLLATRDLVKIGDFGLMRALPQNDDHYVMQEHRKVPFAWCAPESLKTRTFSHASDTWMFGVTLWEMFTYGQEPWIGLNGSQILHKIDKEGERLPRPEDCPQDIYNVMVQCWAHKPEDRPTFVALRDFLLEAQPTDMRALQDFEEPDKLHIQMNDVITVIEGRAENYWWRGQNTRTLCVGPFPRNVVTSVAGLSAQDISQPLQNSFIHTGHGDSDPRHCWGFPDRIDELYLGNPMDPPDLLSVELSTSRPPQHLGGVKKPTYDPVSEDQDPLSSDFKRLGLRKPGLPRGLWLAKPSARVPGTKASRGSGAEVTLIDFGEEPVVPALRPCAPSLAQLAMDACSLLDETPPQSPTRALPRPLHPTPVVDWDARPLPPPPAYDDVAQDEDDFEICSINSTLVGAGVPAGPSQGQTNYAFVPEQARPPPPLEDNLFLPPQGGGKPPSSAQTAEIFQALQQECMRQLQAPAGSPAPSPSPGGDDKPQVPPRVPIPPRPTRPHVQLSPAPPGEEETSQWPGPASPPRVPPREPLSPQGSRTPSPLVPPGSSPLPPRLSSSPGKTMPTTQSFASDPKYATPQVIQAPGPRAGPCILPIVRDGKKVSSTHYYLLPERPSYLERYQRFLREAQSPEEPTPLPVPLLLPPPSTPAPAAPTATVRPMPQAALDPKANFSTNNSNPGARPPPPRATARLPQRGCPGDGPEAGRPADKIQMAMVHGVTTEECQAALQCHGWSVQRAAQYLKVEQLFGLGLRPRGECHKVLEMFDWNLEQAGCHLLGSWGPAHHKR

MUSK = MUSK (Homo sapiens, UniProt O15146); assay: Selectivity profile (123 kinase panel); assay type: biochemical
AKT1 = AKT1 (Homo sapiens, UniProt P31749); assay: Selectivity profile (123 kinase panel); assay type: biochemical
CHK2 = CHK2 (Homo sapiens, UniProt O96017); assay: Selectivity profile (123 kinase panel); assay type: biochemical
Chain of CHK2 (O96017 whole entry): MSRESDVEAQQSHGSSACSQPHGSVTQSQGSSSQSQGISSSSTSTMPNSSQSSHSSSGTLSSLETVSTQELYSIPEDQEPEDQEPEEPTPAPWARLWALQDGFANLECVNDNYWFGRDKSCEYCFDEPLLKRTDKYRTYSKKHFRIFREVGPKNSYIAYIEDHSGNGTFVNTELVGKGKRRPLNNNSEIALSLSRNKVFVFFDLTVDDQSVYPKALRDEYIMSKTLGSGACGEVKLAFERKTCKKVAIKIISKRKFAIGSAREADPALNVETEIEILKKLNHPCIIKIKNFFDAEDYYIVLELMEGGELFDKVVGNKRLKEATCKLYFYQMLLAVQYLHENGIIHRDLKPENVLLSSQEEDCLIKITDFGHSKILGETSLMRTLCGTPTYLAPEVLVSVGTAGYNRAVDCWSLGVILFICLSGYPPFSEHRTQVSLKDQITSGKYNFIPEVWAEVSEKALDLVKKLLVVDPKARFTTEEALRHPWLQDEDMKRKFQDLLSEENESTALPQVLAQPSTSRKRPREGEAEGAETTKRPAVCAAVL

AKT3 = AKT3 (Homo sapiens, UniProt Q9Y243); assay: Selectivity profile (123 kinase panel); assay type: biochemical
Chain of AKT3 (Q9Y243 whole entry): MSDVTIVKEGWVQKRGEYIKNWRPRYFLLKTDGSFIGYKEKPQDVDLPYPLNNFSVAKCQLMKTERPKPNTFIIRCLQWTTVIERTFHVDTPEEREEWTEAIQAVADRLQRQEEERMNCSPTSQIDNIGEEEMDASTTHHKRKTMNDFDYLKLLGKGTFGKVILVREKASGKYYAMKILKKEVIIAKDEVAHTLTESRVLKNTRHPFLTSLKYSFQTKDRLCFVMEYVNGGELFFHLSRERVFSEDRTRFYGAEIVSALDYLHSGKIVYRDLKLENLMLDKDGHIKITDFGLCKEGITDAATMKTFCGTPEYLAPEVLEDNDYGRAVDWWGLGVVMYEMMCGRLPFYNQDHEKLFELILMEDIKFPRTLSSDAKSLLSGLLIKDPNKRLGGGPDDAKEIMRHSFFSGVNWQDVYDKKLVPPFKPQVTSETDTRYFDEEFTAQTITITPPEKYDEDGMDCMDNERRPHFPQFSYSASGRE

EPHA6 = EPHA6 (Homo sapiens, UniProt Q9UF33); assay: Selectivity profile (123 kinase panel); assay type: biochemical
FGFR3 = FGFR3 (Homo sapiens, UniProt P22607); assay: Selectivity profile (123 kinase panel); assay type: biochemical
EGFR = EGFR (Homo sapiens, UniProt P00533); assay: Selectivity profile (123 kinase panel); assay type: biochemical
CSF1R = CSF1R (Homo sapiens, UniProt P07333); assay: Selectivity profile (123 kinase panel); assay type: biochemical
EPHA5 = EPHA5 (Homo sapiens, UniProt P54756); assay: Selectivity profile (123 kinase panel); assay type: biochemical
MARK1 = MARK1 (Homo sapiens, UniProt Q9P0L2); assay: Selectivity profile (123 kinase panel); assay type: biochemical
FER = FER (Homo sapiens, UniProt P16591); assay: Selectivity profile (123 kinase panel); assay type: biochemical
AurC = AurC (Homo sapiens, UniProt Q9UQB9); assay: Selectivity profile (123 kinase panel); assay type: biochemical
Chain of AurC (Q9UQB9 whole entry): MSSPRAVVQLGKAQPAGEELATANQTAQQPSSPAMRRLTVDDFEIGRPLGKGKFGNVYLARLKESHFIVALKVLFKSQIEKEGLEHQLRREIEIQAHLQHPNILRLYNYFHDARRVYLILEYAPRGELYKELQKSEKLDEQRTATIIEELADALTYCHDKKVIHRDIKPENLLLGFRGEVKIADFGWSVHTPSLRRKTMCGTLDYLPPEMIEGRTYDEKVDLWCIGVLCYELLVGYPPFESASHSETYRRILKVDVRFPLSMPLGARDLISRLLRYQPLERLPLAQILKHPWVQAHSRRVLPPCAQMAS

MRCKβ = MRCKβ (Homo sapiens, UniProt Q9Y5S2); assay: Selectivity profile (123 kinase panel); assay type: biochemical
NEK9 = NEK9 (Homo sapiens, UniProt Q8TD19); assay: Selectivity profile (123 kinase panel); assay type: biochemical
INSR = INSR (Homo sapiens, UniProt P06213); assay: Selectivity profile (123 kinase panel); assay type: biochemical

IC50 (PARP9): > 10 µM | IC50 (BTK): > 10 µM | IC50 (EPHA3): > 10 µM | Kd (PARP1): 0.00715 µM | Kd (NRP1): 0.0166 µM | IC50 (FGR): > 10 µM | IC50 (PARP12): > 10 µM | IC50 (BRSK1): > 10 µM | IC50 (JNK1): > 10 µM | IC50 (NEK2): > 10 µM | IC50 (DDR1): > 10 µM | IC50 (JNK2): > 10 µM | IC50 (NuaK1): > 10 µM | IC50 (CRAF): > 10 µM | IC50 (CK1δ): > 10 µM | IC50 (ACK): > 10 µM | IC50 (MUSK): > 10 µM | IC50 (AKT1): > 10 µM | IC50 (CHK2): > 10 µM | IC50 (AKT3): > 10 µM | IC50 (EPHA6): > 10 µM | IC50 (FGFR3): > 10 µM | IC50 (EGFR): > 10 µM | IC50 (CSF1R): > 10 µM | IC50 (EPHA5): > 10 µM | IC50 (MARK1): > 10 µM | IC50 (FER): > 10 µM | IC50 (AurC): > 10 µM | IC50 (MRCKβ): > 10 µM | IC50 (INSR): > 10 µM
Structure (SMILES): NC(N)=NCCC[C@H](NCN1CCN(C(=O)c2cc(Cc3n[nH]c(=O)c4ccccc34)ccc2F)CC1)C(=O)O [PPNR-4]
IC50 (NEK9): > 10 µM
